Measurements reported in PubChem BioAssay AID651842 (Sanford-Burnham Center for Chemical Genomics, 2012).
pIC50: −log10 of the molar value. Several values for one entry are separate records, joined by “and”; a condition that tells them apart may be missing. Equal values may be shown once. Activity calls are given as the source filed them.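 Rule for the calls: active = IC50 of 35 µM or lower, which flags the compound as cytotoxic and nonspecific; inactive = the rest.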

test system: Sufu-KO-LIGHT cells viability, ATP-Lite luminescence; assay: Sufu-null reporter cell viability loss – ATP luminescence, set 1, cytotoxicity control for Gli-SUFU antagonist project, SAR follow-up (AID 651842)

Row | Compound | pIC50 | IC50
1 | O=C(Nc1cc(N2CCCCC2)ncn1)c1ccc2ccccc2c1 | 5.59 | 
2 | CCN(CC)c1cc(NC(=O)c2ccccc2F)ncn1 |  | > 35 µM (inactive)
3 | Cc1nc(NC(=O)c2ccccc2)cc(N2CCCC2)n1 |  | > 35 µM (inactive)
4 | CCN(CC)c1cc(NC(=O)c2cc(OC)cc(OC)c2)ncn1 |  | > 35 µM (inactive)
5 | CC(C)Nc1cc(NC(=O)c2ccccc2)ncn1 |  | > 35 µM (inactive)
6 | O=C(Nc1cc(NCC2CCCO2)ncn1)c1ccccc1 (centres undefined) |  | > 35 µM (inactive)
7 | O=C(Nc1cc(N2CCCCC2)ncn1)c1ccco1 |  | > 35 µM (inactive)
8 | O=C(Nc1cc(N2CCCCC2)ncn1)c1cccc(F)c1 |  | > 35 µM (inactive)
9 | O=C(Nc1cc(N2CCCCC2)ncn1)c1cc2ccccc2s1 | 5.16 | 
10 | Cc1ccc(C(=O)Nc2cc(N3CCCCC3)ncn2)cc1 | 5.46 | 
11 | CN1CCN(c2cc(NC(=O)c3ccccc3)ncn2)CC1 |  | > 35 µM (inactive)
12 | CN(C)c1cc(NC(=O)c2cccc(C#N)c2)ncn1 |  | > 35 µM (inactive)
13 | CCCCNc1cc(NC(=O)c2ccccc2)ncn1 |  | > 35 µM (inactive)
14 | O=C(Nc1cc(N2CCCCC2)ncn1)c1ccccc1F |  | > 35 µM (inactive)
15 | CCN(CC)c1cc(NC(=O)c2ccccc2)ncn1 |  | > 35 µM (inactive)
16 | CC1CCCCN1c1cc(NC(=O)c2ccccc2)ncn1 (centres undefined) |  | > 35 µM (inactive)
17 | CN(C)c1cc(NC(=O)c2ccccc2)ncn1 |  | > 35 µM (inactive)
18 | CCN(CC)c1cc(NC(=O)c2ccccc2)nc(C)n1 |  | > 35 µM (inactive)
19 | N#Cc1ccc(C(=O)Nc2cc(N3CCCCC3)ncn2)cc1 |  | > 35 µM (inactive)
20 | COc1cccc(C(=O)Nc2cc(N3CCCCC3)ncn2)c1 | 5.64 | 
21 | COc1cc(OC)cc(C(=O)Nc2cc(N(C)C)ncn2)c1 |  | > 35 µM (inactive)
22 | CC1CCN(c2cc(NC(=O)c3ccccc3)ncn2)CC1 |  | > 35 µM (inactive)
23 | CCN(CC)c1cc(NC(=O)c2cccc(F)c2)ncn1 |  | > 35 µM (inactive)
24 | O=C(Nc1cc(N2CCCC2)ncn1)c1ccccc1 |  | > 35 µM (inactive)
25 | CC(C)(C)Nc1cc(NC(=O)c2ccccc2)ncn1 |  | > 35 µM (inactive)
26 | CC(C)CNc1cc(NC(=O)c2ccccc2)ncn1 |  | > 35 µM (inactive)
27 | O=C(Nc1cc(N2CCCC2)ncn1)c1cccc(F)c1 |  | > 35 µM (inactive)

Row | Compound | pIC50 | IC50
28 | O=C(Nc1cc(N2CCCCCC2)ncn1)c1ccccc1 |  | > 35 µM (inactive)
29 | O=C(Nc1cc(N2CCCCC2)ncn1)c1ccc(Br)o1 |  | > 35 µM (inactive)
30 | COc1cc(OC)cc(C(=O)Nc2cc(N3CCCCC3)ncn2)c1 | 5.33 | 
31 | CN(C)c1cc(NC(=O)c2cccc(F)c2)ncn1 |  | > 35 µM (inactive)
32 | CCN(CC)c1cc(NC(=O)c2ccc(Br)o2)ncn1 |  | > 35 µM (inactive)
33 | O=C(Nc1cc(N2CCCC2)ncn1)c1ccccc1F |  | > 35 µM (inactive)
34 | N#Cc1cccc(C(=O)Nc2cc(N3CCCCC3)ncn2)c1 |  | > 35 µM (inactive)
35 | O=C(Nc1cc(N2CCCCC2)ncn1)c1cccc2ccccc12 |  | > 35 µM (inactive)
36 | O=C(Nc1cc(N2CCSCC2)ncn1)c1ccccc1 |  | > 35 µM (inactive)
37 | CC(C)CNc1cc(NC(=O)c2cccc(F)c2)ncn1 |  | > 35 µM (inactive)
38 | O=C(Nc1cc(N2CCCCC2)ncn1)c1ccccc1 |  | > 35 µM (inactive)
39 | CC(C)(C)OC(=O)N1CCN(c2cc(NC(=O)c3ccccc3)ncn2)CC1 | 6.62 | 
40 | COc1ccccc1C(=O)Nc1cc(N2CCCCC2)ncn1 |  | > 35 µM (inactive)
41 | CCC(C)Nc1cc(NC(=O)c2ccccc2)ncn1 (centres undefined) |  | > 35 µM (inactive)
42 | O=C(Nc1cc(N2CCOCC2)ncn1)c1ccccc1 |  | > 35 µM (inactive)
43 | COc1cc(OC)cc(C(=O)Nc2cc(Nc3cccc(Cl)c3)ncn2)c1 |  | > 35 µM (inactive)
44 | CCN(CC)c1cc(NC(=O)c2cccc(C#N)c2)ncn1 |  | > 35 µM (inactive)
45 | O=C(Nc1cc(N2CCCCC2)ncn1)c1cccs1 |  | > 35 µM (inactive)
46 | CN(C)c1cc(NC(=O)c2ccccc2F)ncn1 |  | > 35 µM (inactive)
47 | COc1cc(OC)cc(C(=O)Nc2cc(N3CCCC3)ncn2)c1 |  | > 35 µM (inactive)
48 | Cc1nc(NC(=O)c2ccccc2)cc(N2CCCCC2)n1 |  | > 35 µM (inactive)
49 | O=C(Nc1cc(N2CCCCC2)ncn1)c1ccsc1 |  | > 35 µM (inactive)
50 | O=C(Nc1cc(N2CCCCC2)ncn1)c1ccc(Cl)cc1 | 5.85 and 6.23 | 
51 | O=C(Nc1cc(N2CCCCC2)ncn1)c1ccccc1Cl |  | > 35 µM (inactive)
52 | CCCCN(C)c1cc(NC(=O)c2ccccc2)ncn1 | 5.54 | 
53 | O=C(Nc1cc(N2CCNCC2)ncn1)c1ccccc1 |  | > 35 µM (inactive)
54 | Cc1nc(NC(=O)c2ccccc2)cc(N(C)C)n1 |  | > 35 µM (inactive)
